Experiment [1] is described as follows: HA1C lowering in a person ingesting L-glutamine. The settings on record: one person, baseline 6.9%; 30 g per day as an aqueous solution, ingested; after three months. It counts as in vivo. The procedure: The person ingested 30 g of L-glutamine per day as an aqueous solution. After three months of L-glutamine administration, the person's Hb A1C level was measured at 6.1%.

Experiment [2] in a line: Triglyceride lowering in a person ingesting L-glutamine. The format is in vivo. The settings on record: one person, baseline 500 mg/dL; 30 g per day as an aqueous solution, ingested; after three months. Here is the method:
The person ingested 30 g of L-glutamine per day as an aqueous solution. After three months of L-glutamine administration, the person's triglyceride blood level was measured at 150 mg/dL.

Take `NC(=O)CC[C@H](N)C(=O)O` [L-glutamine]: in experiment [1], the “glycolated hemoglobin level (Hb A1C level)” value was found to be 6.1%. In experiment [2], this molecule showed a triglyceride blood level of 150 mg/dL.
